Test results: PubChem BioAssay (NCI)
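Briefly, cells in 96-well plates were exposed to five compound concentrations for 48 h, and endpoints were estimated by linear interpolation. Abbreviation: GI50, concentration required for 50% inhibition of growth. Definition used: TGI = concentration required for complete inhibition of growth.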

Legend:
Assay in all cases: NCI anticancer screen, dose series, 48 h
[1] = test system: RXF 393 renal
[2] = test system: RPMI-8226 leukemia
[3] = test system: NCI-H460 lung
[4] = test system: UACC-62 melanoma
[5] = test system: T-47D breast
[6] = test system: MDA-MB-231 breast
[7] = test system: SK-MEL-2 melanoma
[8] = test system: IGROV1 ovarian
[9] = test system: HCC-2998 colon
[10] = test system: OVCAR-8 ovarian
[11] = test system: UACC-257 melanoma
[12] = test system: DU-145 prostate
[13] = test system: A498 renal
[14] = test system: SF-268 CNS
[15] = test system: NCI-H522 lung
[16] = test system: COLO 205 colon
[17] = test system: HCT-116 colon
[18] = test system: NCI-H226 lung
[19] = test system: EKVX NSCLC
[20] = test system: CCRF-CEM leukemia
[21] = test system: SK-MEL-5 melanoma
[22] = test system: SN12C renal
[23] = test system: SK-MEL-28 melanoma
[24] = test system: SF-295 CNS
[25] = test system: MALME-3M melanoma
[26] = test system: SK-OV-3 ovarian
[27] = test system: HOP-62 NSCLC
[28] = test system: MDA-MB-468 breast
[29] = test system: SNB-19 CNS
[30] = test system: KM12 colon
[31] = test system: ACHN renal
[32] = test system: TK-10 renal
[33] = test system: UO-31 renal
[34] = test system: K-562 leukemia
[35] = test system: U251 CNS
[36] = test system: HOP-92 NSCLC
[37] = test system: 786-0 renal
[38] = test system: OVCAR-5 ovarian
[39] = test system: SF-539 CNS
[40] = test system: SNB-75 CNS
[41] = test system: PC-3 prostate
[42] = test system: MOLT-4 leukemia
[43] = test system: HCT-15 colon
[44] = test system: BT-549 breast
[45] = test system: LOX IMVI melanoma
[46] = test system: A549 NSCLC
[47] = test system: NCI/ADR-RES ovarian
[48] = test system: HL-60(TB) leukemia
[49] = test system: HT29 colon
[50] = test system: MCF7 breast
[51] = test system: OVCAR-4 ovarian
[52] = test system: NCI-H23 lung
[53] = test system: OVCAR-3 ovarian
[54] = test system: HS 578T breast
[55] = test system: CAKI-1 renal
[56] = test system: SW-620 colon
[57] = test system: SR leukemia
[58] = test system: MDA-MB-435
[59] = test system: M14 melanoma

O=c1[nH]c2ccccc2cc1CSc1ccc(Nc2nccc(-c3ccc(C(F)(F)F)cc3)n2)cc1
GI50 [1]: 2.67 µM | TGI [1]: 13 µM | GI50 [2]: 61.6 µM | TGI [2]: > 100 µM | GI50 [3]: 0.0643 µM | TGI [3]: 1.53 µM | GI50 [4]: 15.4 µM | TGI [4]: 33 µM | GI50 [5]: 1.84 µM | TGI [5]: 54.3 µM | GI50 [6]: 1.66 µM | TGI [6]: 9.04 µM | GI50 [7]: 18.7 µM | TGI [7]: 39.5 µM | GI50 [8]: 17 µM | TGI [8]: 43.6 µM | GI50 [9]: 6.89 µM | TGI [9]: > 100 µM | GI50 [10]: 1.94 µM | TGI [10]: 5.97 µM | GI50 [11]: 29.2 µM | TGI [11]: > 100 µM | GI50 [12]: 13.2 µM | TGI [12]: > 100 µM | GI50 [13]: 1.93 µM | TGI [13]: 3.84 µM | GI50 [14]: 2.97 µM | TGI [14]: 20.9 µM | GI50 [15]: 6.19 µM | TGI [15]: 28.7 µM | GI50 [16]: 9.82 µM | TGI [16]: 74.1 µM | GI50 [17]: 0.0885 µM | TGI [17]: 11.6 µM | GI50 [18]: 1.52 µM | TGI [18]: 3.8 µM | GI50 [19]: 3.5 µM | TGI [19]: 40.5 µM | GI50 [20]: 3.51 µM | TGI [20]: > 100 µM | GI50 [21]: 15.4 µM | TGI [21]: 45.9 µM | GI50 [22]: 16.7 µM | TGI [22]: 40.8 µM | GI50 [23]: 20.6 µM | TGI [23]: > 100 µM | GI50 [24]: 1.62 µM | TGI [24]: 5.72 µM | GI50 [25]: 6.51 µM | TGI [25]: 22.6 µM | GI50 [26]: 15.6 µM | TGI [26]: 30.6 µM | GI50 [27]: 1.81 µM | TGI [27]: 4.45 µM | GI50 [28]: 3.33 µM | TGI [28]: 18.2 µM | GI50 [29]: 2.32 µM | TGI [29]: 10.3 µM | GI50 [30]: 94.3 µM | TGI [30]: > 100 µM | GI50 [31]: 1.85 µM | TGI [31]: 10.8 µM | GI50 [32]: 1.6 µM | TGI [32]: 3.97 µM | GI50 [33]: 4.82 µM | TGI [33]: 19.6 µM | GI50 [34]: 13.9 µM | TGI [34]: > 100 µM | GI50 [35]: 0.198 µM | TGI [35]: 2.61 µM | GI50 [36]: 2.32 µM | TGI [36]: 15.2 µM | GI50 [37]: 1.53 µM | TGI [37]: 3.29 µM | GI50 [38]: 30.6 µM | TGI [38]: > 100 µM | GI50 [39]: 2.7 µM | TGI [39]: 10.9 µM | GI50 [40]: 0.714 µM | TGI [40]: 3.88 µM | GI50 [41]: 6.77 µM | TGI [41]: 61.5 µM | GI50 [42]: 4.83 µM | TGI [42]: > 100 µM | GI50 [43]: 2.27 µM | TGI [43]: 69.7 µM | GI50 [44]: 2.66 µM | TGI [44]: 17.1 µM | GI50 [45]: 3.63 µM | TGI [45]: 19.5 µM | GI50 [46]: 2.12 µM | TGI [46]: 10.1 µM | GI50 [47]: 1.32 µM | TGI [47]: 6.21 µM | GI50 [48]: > 100 µM | TGI [48]: > 100 µM | GI50 [49]: 3.46 µM | TGI [49]: > 100 µM | GI50 [50]: 4.55 µM | TGI [50]: > 100 µM | GI50 [51]: 1.23 µM | TGI [51]: 3.95 µM | GI50 [52]: 4 µM | TGI [52]: 18.8 µM | GI50 [53]: 1.38 µM | TGI [53]: 3.58 µM | GI50 [54]: 0.403 µM | TGI [54]: 4.64 µM | GI50 [55]: 1.66 µM | TGI [55]: 7.13 µM | GI50 [56]: 5.53 µM | TGI [56]: > 100 µM | GI50 [57]: > 100 µM | TGI [57]: > 100 µM | GI50 [58]: 11.9 µM | TGI [58]: 55.4 µM | GI50 [59]: 16.8 µM | TGI [59]: 61.3 µM
